Laboratory results: patent US4745223A, “Mono-tertiary-alkylated toluenediamine and derivatives” (Air Products and Chemicals, Inc., priority 1985, dated 1988)

Tests used:
Salmonella strain TA98 = assay: Ames mutagenic assay, strain TA98; format: cell-based; conditions: TA98, (+) with metabolic activation
Experimental: (§1) A series of chain extenders was tested in the Ames mutagenic assay using five strains of Salmonella bacteria without (-) and with (+) metabolic activation. Table 6 provides the results of various test compounds including a variety of known aromatic diamine chain extenders against these five strains of Salmonella bacteria. The data are presented as the quantity of test compound in micrograms per test plate that gave positive mutagencity results.
(§2) From Pharmakon Research International, the Ames test data evaluation criteria in Table 5 are clearly defined: "In most tests with the Salmonella/Microsome Assay, results are either clearly positive or clearly negative. A positive result is defined as a reproducible, dose-related increase in the number of histidine-independent colonies. This dose-response relationship occasionally necessitates slight modification of the original doses in a repeat assay. If the historical control is within one standard deviation of the historical mean and the test chemical produces the highest increase equal to or greater than three times the solvent control value, the test chemical is considered positive. A negative result is defined as the absence of a reproducible increase in the number of histidine-independent colonies."

[1] = system: five strains of Salmonella bacteria; assay: Ames test, overall outcome; format: cell-based; conditions: with and without metabolic activation
Experimental: as §1, §2

Salmonella strain TA1538 = assay: Ames mutagenic assay, strain TA1538; format: cell-based
Experimental: as §1, §2

[2] = Pot life test of chain extenders in polyurethane-urea formulation; conditions: 50° C., log (relative viscosity) = I + A*(time) + B*(time)**2 + C*(time)**3
Experimental: A series of polyurethane-urea elastomers utilizing various chain extenders was prepared and evaluated in a pot life test system for the purpose of determining the reactivity of the chain extenders in standard urethane formulations relative to one another. The polyurethane-urea elastomers were formulated by reacting a prepolymer of poly(1,4-oxytetramethylene)glycol end-capped with 2,4-toluene diisocyanate, the prepolymer having an NCO content generally from 5-7%, with the test candidate chain extender aromatic diamine and a diol. The nominal stoichiometric equivalent ratio of isocyanate to diamine chain extender to diol for each sample is 2:1:1.
The test system for measuring pot life comprised a heated test chamber for holding 7 grams of test sample at a constant temperature (50° C.) and was equipped with a vertical perforated piston. This piston moves up and down through the test sample in timed relationship. (The temperature rise due to the exothermic reaction is discounted.) The force necessary to move the piston through the polymer sample is measured in arbitrary units, and the relationship of the force is plotted as a function of time. The force-pot life relationship of the urethane system during cure then is correlated to known force-viscosity relationships for the urethane-urea systems.
The coefficients apply to the equation:
log (viscosity)=I+A(time)+B(time)^2 +C(time)^3.
The coefficient of the first power term ("A") is a "quasi" reaction rate constant measuring initial reactivity. Smaller values in the quasi rate constant (A) indicate longer and desirable pot lives. The value T-5000 is the time in which the reaction product has a relative viscosity of 5000 units. Even though the value is an arbitrary value, that value is relevant for use in determining the performance of the test candidate in a RIM process or cast elastomers process. For injection molding of modest size parts, T-5000 may be about 2.5 minutes; whereas, the molding of large or intricate parts may require a T-5000 of greater than 5 minutes, e.g., 10 to 40 minutes for hand casting.

Salmonella strain TA100 = assay: Ames mutagenic assay, strain TA100; format: cell-based
Experimental: as §1, §2

Salmonella strain TA1537 [3] = assay: Ames mutagenic assay, strain (TA1537), without (-) and with (+) metabolic activation; format: cell-based; conditions: first strain column, TA1537 as printed
Experimental: as §1, §2

Salmonella strain TA1537 [4] = assay: Ames mutagenic assay, second strain column (printed TA1537), without (-) and with (+) metabolic activation; format: cell-based; conditions: TA1537 as printed, (+) with metabolic activation
Experimental: as §1, §2

## Cc1c(N)c(C(C)(C)C)cc(C(C)(C)C)c1N [35DtB26TDA, 3,5-Ditertiarybutyl-2,6-toluenediamine]
Salmonella strain TA98
  quantity of test compound that gave positive mutagenicity results: 15 micrograms per test plate
[1]
  Ames test result: Ames positive
Salmonella strain TA1538
  quantity of test compound that gave positive mutagenicity results: 50 micrograms per test plate
[2]
  lineshape coefficient A (quasi reaction rate constant, initial reactivity): .1601
Salmonella strain TA100
  quantity of test compound that gave positive mutagenicity results: 50 micrograms per test plate

## Cc1cc(C(C)C)c(N)c(C(C)C)c1N [35DiP24TDA, 3.5-Diisopropyl-2,4-toluenediamine]
[2]
  lineshape coefficient A (quasi reaction rate constant, initial reactivity): .7499

## 3-Cyclopentenyl-2,6-toluenediamine [3Cp26TDA]
[2]
  lineshape coefficient A (quasi reaction rate constant, initial reactivity): .7173

## Cc1c(N)c(C(C)C)cc(C(C)C)c1N [35DiP26TDA, 3,5-Diisopropyl-2,6-toluenediamine]
[2]
  lineshape coefficient A (quasi reaction rate constant, initial reactivity): 1.563

## CCc1cc(C)c(N)c(CC)c1N [35DE24TDA, 3,5-Diethyl-2,4-toluenediamine]
[2]
  lineshape coefficient A (quasi reaction rate constant, initial reactivity): 1.350

## Cc1c(N)ccc(C(C)C)c1N [3iP26TDA, 3-isoPropyl-2,6-toluendiamine]
[2]
  lineshape coefficient A (quasi reaction rate constant, initial reactivity): .5074

## CCc1cc(CC)c(N)c(C)c1N [35DE26TDA, 3,5-Diethyl-2,6-toluenediamine]
[2]
  lineshape coefficient A (quasi reaction rate constant, initial reactivity): 5.572

## CC(C)(C)c1ccc(N)cc1N [tBBDA, tertiaryButyl-2,4-benzenediamine]
Salmonella strain TA98
  quantity of test compound that gave positive mutagenicity results: 1800 micrograms per test plate
Salmonella strain TA1538
  quantity of test compound that gave positive mutagenicity results: 1200 micrograms per test plate

## chlorotoluenediamine [Cl-TDA]
Salmonella strain TA98
  quantity of test compound that gave positive mutagenicity results: 500 micrograms per test plate
[1]
  Ames test result: Ames positive
Salmonella strain TA1538
  quantity of test compound that gave positive mutagenicity results: 500 micrograms per test plate
Salmonella strain TA1537 [3]; (+) with metabolic activation
  quantity of test compound that gave positive mutagenicity results: 50 micrograms per test plate
Salmonella strain TA1537 [3]; (-) without metabolic activation
  quantity of test compound that gave positive mutagenicity results: 500 micrograms per test plate
Salmonella strain TA1537 [4]
  quantity of test compound that gave positive mutagenicity results: 5000 micrograms per test plate
Salmonella strain TA100
  quantity of test compound that gave positive mutagenicity results: 500 micrograms per test plate

## Cc1c(N)cc(C(C)(C)C)cc1N [4tB26TDA, 4-tertiaryButyl-2,6-toluenediamine]
[2]
  lineshape coefficient A (quasi reaction rate constant, initial reactivity): 3.867
[2]; listed as 4-tertiarybutyl-2,6-toluenediamine
  lineshape coefficient A (quasi reaction rate constant, initial reactivity): 3.87

## Cc1c(N)ccc(C(C)(C)C)c1N [3tB26TDA, 3-tert-butyl-2,6-toluenediamine]
[2]
  lineshape coefficient A (quasi reaction rate constant, initial reactivity): .06721
[2]; listed as Monotertiarybutylated 2,6-TDA
  lineshape coefficient A (quasi reaction rate constant, initial reactivity): 0.06721

## Cc1cc(C(C)(C)C)c(N)c(C)c1N [5tB24DAmX, 5-tertiaryButyl-2,4-diaminometaxylene]
[2]
  lineshape coefficient A (quasi reaction rate constant, initial reactivity): .8716

## CCC(C)(C)c1ccc(N)c(C)c1N [3tA26TDA, 3-tertiaryAmyl-2,6-toluenediamine]
[2]
  lineshape coefficient A (quasi reaction rate constant, initial reactivity): .08902

## Cc1cc(C(C)C)c(N)cc1N [5iP24TDA, 5-isoPropyl-2,4-toluenediamine]
[2]
  lineshape coefficient A (quasi reaction rate constant, initial reactivity): 3.374

## Cc1cc(N)c(N)c(C(C)(C)C)c1 [3tB34TDA, 5-tertiaryButyl-3,4-toluenediamine]
[2]
  lineshape coefficient A (quasi reaction rate constant, initial reactivity): .2764

## Cc1c(N)ccc(C2(C)CCCC2)c1N [3tMCp26TDA, 3-tertiaryMethylcyclopentyl-2,6-toluenediamine]
[2]
  lineshape coefficient A (quasi reaction rate constant, initial reactivity): .1722
